Results taken from patent US20120288533A1, “PROTEIN-POLYSACCHARIDE CONJUGATES AND USE FOR ENCAPSULATING NUTRACEUTICALS FOR CLEAR BEVERAGE APPLICATIONS” (Technion Research and Development Foundation Ltd., priority 2011, published 2012).

Legend:
[1] = Simulated gastric digestion using Nile red (NR adsorption to glass, with and without pepsin); type: in vitro ADME; settings: pepsin:CN mass ratio 1:20, pH 2.5, 2 hrs at 37° C.
Method: NR stock solution in ethanol was prepared at a concentration of 0.16 mg/ml=502.6 μM. NR was added during vortexing to the conjugate, mixture or buffer solution, at a concentration of 1.3 μM, to minimize inner filtering effect in fluorescence measurements.
Free NR in aqueous solution adsorbs to the glass walls, which may serve as a convenient way to study its release behavior from nanocapsules. To examine whether NR adsorbs to glass when in water, NR was added to 1 ml of water in a glass vial to a final concentration of 1.3 μM. The vial was left for 2 hrs, then the water was transferred to a new glass vial, and 1 ml of acetone was added to the new vial. At the same time 2 ml of water:acetone (1:1 vol/vol) solution was added to the first vial. After 1 hr both solutions were read for florescence intensity at ex:570, em:645 which is the intensity peak at water:acetone 1:1. Concentration was calculated from the intensity using a NR in water: acetone (1:1) calibration curve.
Then pepsin was added to some of the samples at a concentration of 0.15 mg/ml, in order to reach pepsin: CN mass ratio of 1:20 according to the method by Mandalari et al.^79. […] After 1 hr the acetone: water solution with NR which had adsorbed to the glass was read for fluorescence intensity (ex:570, em:645). NR fluorescence was measured with time to validate that no bleaching occurred during the procedure (data not shown).

[2] = Shelf life of VD at RT and 4° C. in pH 7 PBS with RPH-MD; type: physicochemical; settings: after 22 days of simulated shelf life at neutral pH and 4° C.; VD 0.02 mg/ml, 0.5% ethanol, 0.1% protein
Method: (§1) The protection conferred by the RPH-MD against HN deterioration with time was evaluated. Different shelf life conditions of temperature 4° C. or 23° C. and pH, neutral or acidic, were tested. Neutral pH conditions were obtained by a pH7 PBS. Acidic conditions for CLA were obtained by a pH 3 citric buffer. Acidic conditions (pH 2.5) for VD were obtained by addition of HCl.
(§2) Following the incubation of HN co-assembled samples under the above shelf life conditions, HN extraction was carried out. Then the HN concentration in the samples was quantified using reversed phase HPLC(RP-HPLC), 4.6×100 mm C18-C2 column, on an Akta basic HPLC system equipped with a 3 simultaneous wavelengths UV detector (GE Healthcare, Waukesha, Wis., USA). The volume of the injection loop was 100 μl, and the operation temperature was 24° C.
(§3) The concentration of the vitamin D was 0.02 mg/ml, a high dosage intended for simulating beverage concentrates, which are later diluted during bottling, but must be colloidally and chemically stable. […]
(§4) Vitamin D extraction and HPLC quantification was based on Kazmi et al^57. […] Operating conditions were: ambient temperature (24±1° C.); mobile phase was methanol: acetonitrile: water (49.5:49.5:1 v/v); flow rate was 0.3 ml/min; and the absorbance was measured at 254 nm and 228 nm.

[3] = Particle size distribution by DLS, RPH / RPH-MD samples with and without CLA or VD, with and without homogenization; type: physicochemical; settings: 0.5% ethanol
Method: The conjugate samples were characterized as follows. Two mg/ml (on a protein base) solutions were prepared from the dry heated samples of RPH with and without MD and compared to the unheated control. The RPH-MD powder was dissolved in a pH 7 PBS and stirred overnight for complete hydration. The samples were filtered through 0.45 μm syringe filters (polyvinylidene fluoride, Durapore filter (Millipore, Carrigtwohill, Co. Cork, Ireland).
Additionally, the HN RPH-MD co-assembled particles were analyzed at different concentrations of the VD or CLA.
The dispersion of VD with and without RPH-MD was homogenized by Micro DeBee (Bee International Inc. South Easton Mass., USA) ultra-high pressure homogenizer: process pressure: 20-25 kpsi, Orifice diameter: 0.1 mm. The sample composition was 0.1% protein, 0.5% ethanol, VD concentration 0.02 mg/ml, buffer PBS pH 7. The sample volume subjected to homogenization was 25 ml. The influence of the homogenization process on particles size was evaluated by DLS measurements performed 2 hr after the homogenization.

[4] = Protection of VD against acidic pH treatment (pH 2.5, 2 hr, RT) with RPH-MD, RP-HPLC; type: physicochemical; settings: pH 2.5 for 2 hr at RT; initial VD 0.02 mg/ml, 0.5% ethanol, 0.1% w/w protein
Method: as §1, §2, §3, §4

[5] = Simulated shelf life of CLA at RT in pH 7 PBS with RPH-MD; type: physicochemical; settings: after 14 days, neutral pH (pH 7 PBS), CLA 0.09 mg/ml, 0.5% ethanol, 1% protein
Method: as §1, §2, §3
(§5) To extract CLA, isopropanol (0.5 ml) was added to 0.5 ml sample. […] The separation of CLA was performed with a mobile phase of acetonitrile/water/acetic acid (70/30/0.12, v/v/v) at a flow rate of 1.5 ml/min and CLA was detected at 234 nm, which was found optimal in a spectrum scan (not shown).

[6] = CLA protection under acidic conditions (pH 3, 4° C.) with RPH-MD, RP-HPLC; type: physicochemical; settings: CLA 0.09 mg/ml, 0.5% ethanol, 1% protein
Method: as §1, §2, §3, §5

CCN(CC)c1ccc2nc3c4ccccc4c(=O)cc-3oc2c1 [Nile Red (NR), Nile Red]
effect of digestion with pepsin on binding of NR (in words) [1]: did not change the binding of NR to casein peptides

Vitamin D3 [Vitamin D3 (VD3)]
residual VD [2]: 28%
VD particle size fraction by DLS, without homogenization ([3]; 0.1% protein, 0.02 mg/ml VD, pH 7 PBS): 100-200 nm
residual VD [4]: 50%

conjugated linoleic acid [CLA]
residual percentage of CLA [5]: 0%
CLA particle size by DLS ([3]; CLA in PBS pH 7 or 1% protein solutions, RPH-MD value at CLA 0.05-0.015 μg/ml): a few hundred
residual percentage of CLA ([6]; after 1 day at pH 3.0 and 4° C.): about 20%
residual percentage of CLA ([6]; after 4 days at pH 3.0 and 4° C.): ~0%
